# Data taken from patent publication EP4545550B1, “INSECT NEUROPEPTIDES” (Solasta Bio Limited, priority 2023, dated 2025).
# Tested on: Spodoptera frugiperda
# Experiment: Lepidoptera artificial diet assay
# Type: in vivo
# Conditions: unformulated peptide, final concentration 1x10^-4 M in artificial diet, one L1 larva per cell, n=10, after 168 hours; compared to the insecticide DDT and negative control vehicle
# Excerpt: Frontier Lepidoptera artificial diet was made up by preparing agar at 1% and then mixing it with artificial diet powder. Peptide solution was aliquoted in 10 cells and diet poured straight onto it. The final concentration of the peptide was 1x10^-4 M, and each peptide was aliquoted in 10 cells. Once the diet solidified and cooled down, one L1 larvae was infested in each cell. The trays were sealed with heat and let larva were allowed to develop for 168 hrs. Finally, pupation and mortality were scored for. Lepidoptera artificial diet assays were performed with SB-P-80, and compared to a negative control vehicle and the insecticide dichlorodiphenyltrichloroethane (DDT).
substance,measurement,value
"H-NADEDQQQSVDFTPRL-NH2 [SB-P-80, [Hy]-NADEDQQQSVDFTPRL-[NH2]]",activity (pupation and mortality scored),much higher activity
